Laboratory results: paper PMC7356297, “Bicyclic Boronates as Potent Inhibitors of AmpC, the Class C β-Lactamase from Escherichia coli” (Biomolecules, 2020)
Several values for one entry are separate records, joined by “and”; a condition that tells them apart may be missing. Equal entries are not always repeated.

Legend:
[1] = test system: DH5α Escherichia coli; test: Broth microdilution MIC of ceftazidime, strain without plasmid; format: cell-based; details: read-out: Minimum Inhibitory Concentration Ceftazidime
Method: (§1) Minimum inhibitory concentrations (MICs) were determined by broth microdilution in triplicate and interpreted using published Clinical and Laboratory Standards Institute (CLSI) guidelines.
(§2) Ceftazidime (CAZ) was tested alone (0.25–256 μg mL^−1) against DH5α Escherichia coli and DH5α E. coli containing the pAD7-AmpCEC plasmid and in combination with CB2, CB3, TAN, and VAB (all tested at a fixed concentration of 4 μg mL^−1) using the DH5α E. coli strain containing the pAD7-AmpCEC plasmid.

[2] = test system: DH5α E. coli containing the pAD7-AmpCEC plasmid; test: Broth microdilution MIC of ceftazidime alone or with inhibitor, AmpCEC producing strain; format: cell-based, Escherichia coli
Method: as §1, §2

[3] = target: T1, AmpC from Escherichia coli (AmpCEC) (Escherichia coli, UniProt P00811); test: Steady-state competition kinetics of AmpCEC (100 nM) with fluorescent substrate FC-5 (Kiapp, k2/K); format: biochemical; details: for Ki: Kiapp, apparent inhibition constant corrected with KM of FC-5; for kinact/KI: pH 7.5, read-out: k2/K, 100 nM AmpCEC, 5 µM FC-5
T1 construct: made in house; host or cells: E. coli W3110 (pAD7 vector)
Method: (§3) All kinetic measurements were carried out in competition assays using the fluorescent substrate FC-5 [36] under steady-state conditions monitoring hydrolysis, in 100 mM phosphate buffer pH 7.5 supplemented with 0.01% (v/v) Triton X-100 (Assay Buffer). Fluorescence was measured using a PHERAstarFS (BMG Labtech, Aylesbury, United Kingdom) plate-reader, recording emission spectra at λex = 380 nm and λem = 460 nm. IC50s were determined after 10 min incubation time of 500 pM AmpCEC with varying concentrations of inhibitors and assayed using 5 µM FC-5. Nonlinear regression analyses were carried out using GraphPad Prism V. 5.04 (GraphPad Software, San Diego, CA, USA).
As described for avibactam inhibition, the kinetics of bicyclic boronate inhibition of β-lactamases can be described assuming a two-step, reversible inhibition model:(1) E+I → k1 ←k−1 E:I → k2 ←k−2 E−I with E: enzyme; I: inhibitor; k1: association rate constant; k−1: dissociation rate constant; k2: binding rate constant, and k−2: recyclization rate constant.
To obtain the pseudo first-order rate constant kobs and the apparent inhibition constant Kiapp, the rate of FC-5 (5 µM) hydrolysis by AmpCEC (100 nM) was measured in the presence of varying concentrations of the inhibitor.
Plotting the resultant kobs values against the inhibitor concentration [I] (Figure S1b) and fitting to Equation (3) gives the apparent second-order rate constant (k2/K’) (3) kobs=k2+k2/K^′∗ I with K’ representing the equilibrium coefficient of AmpCEC inhibition in the presence of FC-5 in the set concentration of 5 µM.
This can then be corrected using the Michaelis constant (KM) of FC-5 for AmpCEC and the FC-5 concentration [S] according to Equation (4) to give the second-order rate constant (k2/K):(4) k2/K=k2/K^′∗ S/KM+1
The same data were used to determine the apparent inhibition constant Kiapp. The reciprocals of the initial rates were plotted against inhibitor concentration (Figure S1a), giving a straight line for which the value of the intercept divided by the slope gives Kiapp’. From this, Kiapp can be obtained after correction with the KM for FC-5 according to Equation (5):(5) Kiapp=Kiapp’/1+S/KM

[4] = target: T1, AmpC from Escherichia coli (AmpCEC); format: biochemical; details: half-life of the enzyme-inhibitor complex, ln2/koff
Method: as §3
Off rates (k-2 or koff) were measured using the jump-dilution method (Figure S1c). AmpCEC (1 µM) was incubated with the respective inhibitor (10 µM for TAN, CB2 and CB3, and 100 µM for VAB) for 30 min at room temperature, then diluted 100,000 fold in the Assay Buffer (final enzyme concentration: 10 pM) and immediately assayed with 25 µM FC-5. The data were fitted to Equation (2) with V0 in this case representing the velocity of the no-enzyme control and VS representing the initial velocity of uninhibited enzyme.
The half-life of the enzyme-inhibitor complex t1/2 is given by Equation (6):(6) t1/2=ln2/koff

[5] = target: T1, AmpC from Escherichia coli (AmpCEC); test: IC50 determination, 500 pM AmpCEC, 5 µM FC-5, 10 min pre-incubation; format: biochemical; details: pIC50, 500 pM AmpCEC, 5 µM FC-5, 10 min inhibitor pre-incubation at room temperature
Method: as §3

T1 sequence (P00811 20-377): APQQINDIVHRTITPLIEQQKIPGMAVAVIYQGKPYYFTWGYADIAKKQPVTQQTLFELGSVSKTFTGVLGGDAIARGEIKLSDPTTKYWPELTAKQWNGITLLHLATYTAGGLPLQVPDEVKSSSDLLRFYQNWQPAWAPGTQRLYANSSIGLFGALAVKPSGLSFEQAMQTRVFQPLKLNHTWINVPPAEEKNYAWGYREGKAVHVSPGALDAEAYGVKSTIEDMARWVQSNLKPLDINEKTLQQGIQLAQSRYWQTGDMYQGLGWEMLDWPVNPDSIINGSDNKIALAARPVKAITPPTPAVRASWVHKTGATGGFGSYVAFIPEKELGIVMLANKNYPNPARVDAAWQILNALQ

SMILES	MIC [1] [µg/mL]	MIC ([2]; Escherichia coli, read-out: Minimum Inhibitory Concentration Ceftazidime) [µg/mL]	Ki ([3]; 100 nM AmpCEC, 5 µM FC-5)	kinact/KI ([3]; second-order rate constant) [M⁻¹ s⁻¹]	t1/2 [4] [min]	IC50 [5]	Minimum Inhibitory Concentration Ceftazidime (CAZ + inhibitor) ([2]; CAZ in combination with the inhibitor at a fixed concentration of 4 µg mL^−1, DH5α pAD7 AmpCEC) [µg/mL]	k2/K ([3]; 100 nM AmpCEC, 5 µM FC-5, second-order rate constant) [M^−1 s^−1 × 10^3]
CC(C)(O/N=C(\C(=O)N[C@@H]1C(=O)N2C(C(=O)[O-])=C(C[n+]3ccccc3)CS[C@H]12)c1csc(N)n1)C(=O)O [CAZ, Ceftazidime]	1	256	–	–	–	–	–	–
O=C(O)c1cccc2c1OB(O)C(SCc1ccccc1)C2 (centres unmarked) [CB3]	–	–	1000 nM and 1160 nM	224000 ± 21000	0.55 ± 0.34	29.5 nM	4	–
O=C(O)C[C@@H]1CC[C@H](NC(=O)Cc2cccs2)B(O)O1 [VAB, vaborbactam]	–	–	19000 nM and 19100 nM	~7000	16.8 ± 0.7	501 nM and 479 nM	–	6.55 ± 0.46
NCc1ccc(C(=O)N[C@H]2Cc3cccc(C(=O)O)c3OB2O)cc1 [CB2]	–	–	3000 nM and 3260 nM	81000 ± 6400	4.18 ± 0.41	31.6 nM and 32.4 nM	–	–
NCCN[C@H]1CC[C@H](CC(=O)N[C@H]2Cc3cccc(C(=O)O)c3OB2O)CC1 [TAN, taniborbactam]	–	–	4000 nM and 3730 nM	85600 ± 9200	4.55 ± 0.91	29.5 nM	–	–
